Experimental data taken from publication PMC9688344, “[^225Ac]Ac-SibuDAB for Targeted Alpha Therapy of Prostate Cancer: Preclinical Evaluation and Comparison with [^225Ac]Ac-PSMA-617” (Cancers, 2022).
Values joined by “and” are separate entries in the source; they are usually repeats but may differ in a detail not shown here. Equal entries are not always repeated. “Also recorded” adds a separate entry of the source.

Legend:
[1] = system: PSMA-positive PC-3 PIP tumor xenografts; assay: Therapy study in PC-3 PIP tumor-bearing mice; type: in vivo, BALB/c nude mice
Method: Five days after subcutaneous inoculation of four groups of mice with either PC-3 PIP or PC-3 flu tumor cells on the right shoulder (4 × 10^6 cells in 100 μL HBSS), the mice were intravenously injected with either vehicle only (saline with 0.05% BSA, n = 6 and n = 4, respectively) or with 30 kBq [^225Ac]Ac-SibuDAB (1 nmol per mouse; n = 4 per group) diluted in vehicle (Table 1).
After tumor cell inoculation, mice bearing PC-3 PIP tumor xenografts were intravenously injected with vehicle only (n = 6) or with [^225Ac]Ac-SibuDAB or [^225Ac]Ac-PSMA-617, respectively, applied at 5 kBq or 10 kBq (1 nmol per mouse; n = 6 per group; Table 1). The control group consisted of mice from several studies (n = 12 mice) and the data from this group were published previously.
After administration of the radioligands, the mice were monitored over 8 weeks using the same measures as previously published by Umbricht et al.. The relative body mass was defined as [BMx/BM0], where BMx is the body mass in grams at a given Day x and BM0 is the body mass in grams at Day 0. The tumor dimension was determined by measuring the longest tumor axis (L) and its perpendicular axis (W) with a digital caliper. The tumor volume (V) was calculated according to the equation [V = 0.5 × (LW^2)]. The relative tumor volume was defined as [TVx/TV0], where TVx is the tumor volume in mm^3 at a given Day x, and TV0 is the tumor volume in mm^3 at Day 0. Endpoint criteria that required euthanasia were defined as (i) body mass loss of >15%, (ii) a tumor volume of >800 mm^3, (iii) a combination of body mass loss of >10% and a tumor volume of >700 mm^3 or, (iv) signs of unease and pain or a combination thereof using a scoring system as previously reported. The median survival of mice of each group was assessed with Kaplan–Meier curves. Potential early side effects for mice that survived until study end were determined based on blood chemistry and organ-to-brain mass ratios on Day 56 by comparison to values obtained from an additional group of therapy-naïve mice (n = 4) without tumors but of the same age (Supplementary Material: Section S9).
Table S10. Biodistribution data and tumor-to-background ratios obtained in PC3-PIP/flu tumor-bearing mice 48 h after injection of [225Ac]Ac-SibuDAB, [177Lu]Lu-SibuDAB, [225Ac]Ac-PSMA-617 or [177Lu]Lu-PSMA-617. Decay-corrected data of accumulated activity are shown as [% IA/g]-values, representing the average ± SD.
Biodistribution data at 48 h p.i.
1 Data of [177Lu]Lu-PSMA-617 were previously published by Benešová et al., Mol Pharm 2018 [2]; Copyright 2018, American Chemical Society.
Purpose: In order to determine the therapeutic efficacy of [225Ac]Ac-SibuDAB in com-parison to [225Ac]Ac-PSMA-617 as well as the 177Lu-labeled counterparts, therapy studies were conducted in PC-3 PIP xenograft-bearing BALB/c nude mice.
Methods: The methods of the therapy study to assess the therapeutic efficacy of [225Ac]Ac-SibuDAB are reported in the main manuscript. An additional group of mice was treated with 10 MBq (1 nmol) [177Lu]Lu-SibuDAB under the same experimental condi-tions. Data previously acquired by our group for mice treated with 5 MBq [177Lu]Lu-SibuDAB were published by Borgna & Deberle et al. and data of mice treated with 5 MBq or 10 MBq [177Lu]Lu-PSMA-617 were previously published by Tschan et al. and Umbricht et al., respectively.
Results: The assessment of the PSMA-specific therapeutic effect of [225Ac]Ac-SibuDAB as well as the comparison to [225Ac]Ac-PSMA-617 are described in the main ar-ticle. The body mass of effectively treated mice, in which the tumor disappeared entirely […]
tumor-bearing mice that were treated with only vehicle as well as for some mice that were treated with 5 kBq or 10 kBq [225Ac]Ac-PSMA-617 and experienced a relapse in tumor

[2] = system: PSMA-negative PC-3 flu cells; assay: Cell uptake in PSMA-negative cells; type: cell-based

SMILES | Day of first endpoint ([1]; 5 kBq) | Day of last endpoint ([1]; 5 kBq) | Median Survival ([1]; 5 kBq) | Number of Mice Alive on Day 56 ([1]; 5 kBq) | Tumor response ([1]; 5 kBq) | Day of first endpoint ([1]; 10 kBq) | Day of last endpoint ([1]; 10 kBq) | Median Survival ([1]; 10 kBq) | Number of Mice Alive on Day 56 ([1]; 10 kBq) | Cell uptake [2] [%] | Tumor response ([1]; 5 kBq, listed as [225Ac]Ac-SibuDAB) | Tumor response ([1]; 10 kBq) | Tumor response ([1]; 10 kBq, listed as [225Ac]Ac-SibuDAB) | Day of first endpoint ([1]; 30 kBq) | Day of last endpoint ([1]; 30 kBq) | Median Survival ([1]; 30 kBq) | Number of Mice Alive on Day 56 ([1]; 30 kBq) | Tumor response ([1]; 30 kBq) | Tumor response ([1]; 30 kBq, listed as [225Ac]Ac-SibuDAB)
O=C([O-])CN1CCN(CC(=O)[O-])CCN(CC(=O)NCC2CCC(C(=O)NC(Cc3ccc4ccccc4c3)C(=O)NCCCCC(NC(=O)NC(CCC(=O)O)C(=O)O)C(=O)O)CC2)CCN(CC(=O)[O-])CC1.[225Ac+3] (centres unmarked) [[^225Ac]Ac-PSMA-617] | 42 | 56 | 46 days | one out of six and 1/6 | tumor regrowth was observed | 38 | 56 | >56 ^3 days | four out of six and 4/6 | < 1 | – | – | – | – | – | – | – | – | –
CC(C)Cc1ccc(C(C)C(=O)NC(CCN)C(=O)NCCCCC(NC(=O)CN2CCN(CC(=O)[O-])CCN(CC(=O)[O-])CCN(CC(=O)[O-])CC2)C(=O)NCC2CCC(C(=O)NC(Cc3ccc4ccccc4c3)C(=O)NCCCCC(NC(=O)NC(CCC(=O)O)C(=O)O)C(=O)O)CC2)cc1.[225Ac+3] (centres unmarked) [[^225Ac]Ac-SibuDAB] | 56 ^2 | 56 ^2 | >56 ^3 days | 6/6 | sufficient to eradicate the tumors; also recorded: effectively eradicated tumors of all mice; also recorded: no tumors were visible at Day 56 | 56 ^2 | 56 ^2 | >56 ^3 days | 6/6 | < 1 | no tumors were visible 56 days after; also recorded: no tumor visible on Day 56 | effectively eradicated tumors of all mice | no tumor visible on Day 56 | 56 ^2 | 56 ^2 | >56 ^3 days | 4/4 | eradicated PSMA-positive PC-3 PIP tumors entirely | no tumor visible on Day 56
